Assay results: PMC7457137, “An Integrated Pharmacokinetic Study of an Acanthopanax senticosus Extract Preparation by Combination of Virtual Screening, Systems Pharmacology, and Multi-Component Pharmacokinetics in Rats” (Frontiers in Pharmacology, 2020)
Read-outs that look alike come from different tables or passages of the source.

Tests used:
[1] = Multi-component PK in rats after i.v. administration of ASEP; format: in vivo, Sprague-Dawley rats; conditions: for AUC(0-t) / AUC(0-inf) / clearance / MRT last / MRT inf / Vd / half-life: male, Sprague-Dawley, rat, in vivo, iv; for AUC(0-t): read-out: AUC0-t; for AUC(0-inf): read-out: AUC0-∞; for clearance: read-out: Cl (converted); for MRT last: read-out: MRT0-t; for MRT inf: read-out: MRT0-∞; for Vd: read-out: Vd
Method: The animal experiments were conducted in line with the Guide for the Care and Use of Laboratory Animals (published by the USA National Institutes of Health, NIH Publication no. 85-23, revised 1996), which were approved by the Animal Care and Use Committee of the College of Animal Science (College of Bee Science), Fujian Agriculture and Forestry University (Approval Number: […]2019004). […] All rats were acclimated to the facilities and environment for 7 days before the experiments. […] The gradient elution was carried out by the mobile phase water with 0.1% formic acid (A) and methanol (B). […] The column temperature and flow rate were at 35 °C and 0.5 ml/min, resepectively. 5 μl sample solution was injected for the HPLC-MS analysis. The electrospray ionization (ESI) source conditions were as follows: block heating temperature was kept at 400 °C; desolvation line temperature was set at 250 °C; dry gas (nitrogen) flow rate was kept at 15 L/min; and auxiliary gas (nitrogen) flow rate was 3 L/min. […] The plasma samples were separated by centrifugation, followed by storing at -20 °C before analysis. […] A DAS 3.0 software (Chinese Pharmacologic Society, Beijing, China) was used to calculate the noncompartmental PK parameters. All the results were presented as mean ± SD, and statistics analysis was done with a single-tailed Student's t test in the work.

[2] = Stability of the compounds in rat plasma (LC-MS validation); format: in vitro ADME
Excerpt: According to the “Guidelines for non-clinical pharmacokinetics of drugs” issued by Centre for Drug Evaluation, National Medical Products Administration, China ([Guidelines for non-clinical pharmacokinetics of drugs, 2014]), the LC-MS method was validated by linearity, limits of detection (LOD), limits of quantification (LOQ), precision, accuracy, extraction recovery, matrix effect and stability of the 6 compounds in rat plasma. In brief, blank rat plasma was obtained from the other six rats. The standard mixture solution containing the 6 compounds (with the concentration of 1 mg/ml for each) was diluted with […] to prepare a series of working solution containing the 6 compounds (concentration level: 20, 50, 100, 250, 500 ng/ml and 1, 2.5, 5, 10, 25, 50, 100, 125 150, 200 μg/ml) and IS (2.5μg/ml). For calibration curve, 10 μl of the series of working solution containing the IS (2.5μg/ml) was added into 100 μl of blank plasma. Finally, 15 data points (2, 5, 10, 25, 50, 100, 250, 500 ng/ml and 1, 2.5, 5, 10, 12.5 15, 20 μg/ml) were used in the calibration curve linearity. Calibration curves were plotted by weighted linear regression of the peak area ratio of analyte to the IS against the related nominal concentration of the analyte. LOD and LOQ were defined as the detectable concentration at which the ratio of signal to noise was about 3 and 10, respectively ([Huang et al., 2019]). […] The extraction recovery and matrix effect were also assessed at the above-mentioned three concentration levels for the 6 ingredients in the spiked plasma samples ([Huang et al., 2019]). Stability was examined under the condition of setting un-treated plasma samples at ambient temperature for 6 h, and extracted plasma samples in auto-sampler for 10 h, as well as setting plasma samples for three freeze-thaw cycles and at −80°C for 15 days ([Guidelines for non-clinical pharmacokinetics of drugs, 2014]).

insulin resistance = system: insulin resistance; design: method as in Kim et al., 2017; conditions: high-fat diet-fed mice; ref Kim et al., 2017; cited from earlier work
[3] = after ASEP; ref Fan et al., 2015; cited from earlier work

**Q.** For `COc1cc(/C=C/CO)cc(OC)c1O[C@@H]1O[C@H](CO)[C@@H](O)[C@H](O)[C@H]1O` [EB, eleutheroside B], which “ingredient concentration in rat plasma” value ([1]; PK time points 2.5, 5, 10, 15 and 20 min after single i.v. 3.52 ml/kg of 5 times concentrated ASEP, preliminary examination) is on record?
**A.** Its value is > 0.5 ng/mL.

**Q.** And the AUC(0-t) ([1]; 1.76 ml/kg)?
**A.** The AUC(0-t) was 3040 ng·h/mL.

**Q.** And the AUC(0-inf) ([1]; 1.76 ml/kg)?
**A.** The AUC(0-inf) was 3060 ng·h/mL.

**Q.** And the clearance ([1]; 1.76 ml/kg)?
**A.** Its clearance is 9.17 mL/min.

**Q.** What about the MRT last ([1]; 1.76 ml/kg) of the same compound?
**A.** Its MRT last is 26.4 min.

**Q.** What about the MRT inf ([1]; 1.76 ml/kg) of the same compound?
**A.** Its MRT inf is 31.2 ± 0.6 min.

**Q.** And the Vd ([1]; 1.76 ml/kg)?
**A.** Its Vd is 3.45 ± 0.1 L.

**Q.** And the half-life ([1]; 1.76 ml/kg, read-out: t 1/2 (converted))?
**A.** Its half-life is 261 ± 6 min.

**Q.** And the AUC(0-t) ([1]; 3.52 ml/kg)?
**A.** Its AUC(0-t) is 4530 ng·h/mL.

**Q.** What about the AUC(0-inf) ([1]; 3.52 ml/kg) of the same compound?
**A.** Its AUC(0-inf) is 4540 ng·h/mL.

**Q.** And the clearance ([1]; 3.52 ml/kg)?
**A.** The clearance was 12.3 mL/min.

**Q.** What about the MRT last ([1]; 3.52 ml/kg) of the same compound?
**A.** Its MRT last is 26.4 ± 0.6 min.

**Q.** And the MRT inf ([1]; 3.52 ml/kg)?
**A.** Its MRT inf is 30 ± 1.2 min.

**Q.** What about the Vd ([1]; 3.52 ml/kg) of the same compound?
**A.** Its Vd is 3.38 ± 1.15 L.

**Q.** What about the half-life ([1]; 3.52 ml/kg, read-out: t 1/2 (converted)) of the same compound?
**A.** Its half-life is 190 ± 65.4 min.

**Q.** What about the half-life ([1]; read-out: t 1/2 (elimination in rat blood)) of the same compound?
**A.** Its half-life is ≥ 190 min.

**Q.** And the “Stability, RE” value ([2]; extracted plasma samples, 10h in auto-sampler vials, high spiked level (HQC, 8000-16000 ng/mL))?
**A.** Its value is 1.92%.

**Q.** And the “Stability, RE” value ([2]; extracted plasma samples, 10h in auto-sampler vials, low spiked level (LQC, 5-30 ng/mL))?
**A.** Its value is 12.12%.

**Q.** What about the “Stability, RE” value ([2]; extracted plasma samples, 10h in auto-sampler vials, middle spiked level (MQC, 400-1600 ng/mL)) of the same compound?
**A.** Its value is -0.97%.

**Q.** And the “Stability, RE” value ([2]; rat plasma, 6h at room temperature, high spiked level (HQC, 8000-16000 ng/mL))?
**A.** The value was -4.48%.

**Q.** What about the “Stability, RE” value ([2]; rat plasma, 6h at room temperature, low spiked level (LQC, 5-30 ng/mL)) of the same compound?
**A.** The value was -5.59%.

**Q.** What about the “Stability, RE” value ([2]; rat plasma, 6h at room temperature, middle spiked level (MQC, 400-1600 ng/mL)) of the same compound?
**A.** Its value is -14.91%.

**Q.** What about the “Stability, RE” value ([2]; rat plasma, freeze-thaw stability (three cycles), high spiked level (HQC, 8000-16000 ng/mL)) of the same compound?
**A.** The value was -4.14%.

**Q.** And the “Stability, RE” value ([2]; rat plasma, freeze-thaw stability (three cycles), low spiked level (LQC, 5-30 ng/mL))?
**A.** The value was 4.10%.

**Q.** And the “Stability, RE” value ([2]; rat plasma, freeze-thaw stability (three cycles), middle spiked level (MQC, 400-1600 ng/mL))?
**A.** The value was -0.75%.

**Q.** What about the “Stability, RE” value ([2]; rat plasma, long-term stability (-80℃,15 days), high spiked level (HQC, 8000-16000 ng/mL)) of the same compound?
**A.** The value was 6.11%.

**Q.** What about the “Stability, RE” value ([2]; rat plasma, long-term stability (-80℃,15 days), low spiked level (LQC, 5-30 ng/mL)) of the same compound?
**A.** Its value is -8.20%.

**Q.** What about the “Stability, RE” value ([2]; rat plasma, long-term stability (-80℃,15 days), middle spiked level (MQC, 400-1600 ng/mL)) of the same compound?
**A.** Its value is -4.54%.

**Q.** And the “effect on insulin resistance” value (insulin resistance)?
**A.** Its value is “improve insulin resistance”.

**Q.** What about the “PK profile in cerebral ischemia-reperfusion rats compared with the normal group” value [3] of the same compound?
**A.** The value was “accumulated”.
